Patent publication US10494380B2, “Nitrogen-containing tricyclic derivatives having HIV replication inhibitory activity” (priority 2015, dated 2019)

Each compound was assayed on T125A mutant virus (HIV-1 NL-432 recombinant molecular clone, IN gene) (assay: HIV replication inhibition assay against integrase 124/125 mutant virus (Test Example 2)). Conditions: Human immunodeficiency virus 1, MT4, read-out: EC50 against T125A mutant virus, T125A mutant virus (HIV-1 NL-432 IN gene), MT-4 cells, MTT.
Format: cell-based
Procedure: Persistently HIV (HTLV-IIIB strain) infected human T cell strain Molt-4 clone8 was cultured in RPMI-1640 medium supplemented with 10% fetal bovine serum and the supernatant was filtered, then the virus titer was measured and stored at −80° C. Polymorphic mutations in HIV-1-infected patients have been observed in amino acids 124 and 125 on the HIV-1 integrase (IN) gene. A point mutation was introduced on the amino acids 124 and/or 125 of IN gene of the HIV-1 NL-432 recombinant molecular clone to generate a mutant virus plasmid construct. These mutant virus plasmids were transfected into 293T cells, and after two days, the supernatant was filtered and then the virus titer was measured and stored at −80° C. Each anti-HIV active substance was diluted with culture medium described above to the designated concentration, which was dispensed into 96-well microtiter plate by 50 μL. Next, 100 μL of MT-4 cell suspension (2.5×10^4 cells) was dispensed into each well, then 50 μl of HIV-containing supernatant diluted with culture medium described above was added thereto (60 pfu (plaque forming unit)).
Cells were cultured at 37° C. in CO2 incubator for four days, then 30 μL of MTT (3-(4,5-dimethylthiazole-2-yl)-2,5-diphenyltetrazolyum bromide) reagent (5 mg/mL in PBS) was added to all wells followed by incubation for 1 hour. In this step, MTT was reduced to insoluble formazan in living cells. To elute generated formazan, 150 μL of the culture supernatant was removed from all wells, then 150 μL of cell lysis solution (10% Triton X-100 and 0.4% (v/v)-HCl containing isopropanol) was added thereto, followed by shaking with a plate mixer. The formazan was measured with micro plate reader at OD: 560 nm and 690 nm (reference wavelength) and the result was compared with the reference wells. EC50 means the compound concentration at which 50% of cytotoxicity caused by virus infection is inhibited.
For COC[C@@H]1Cn2c(C)cc3c(-c4ccc(Cl)cc4)c([C@H](OC(C)(C)C)C(=O)O)c(C)c(c32)N1S(C)(=O)=O [Compound I-087], the EC50 was 20 nM. In the case of Cc1c([C@H](OC(C)(C)C)C(=O)O)c(-c2ccc(Cl)cc2)c2cc(C)n3c2c1N(S(C)(=O)=O)[C@@H](C(F)F)C3 [Compound I-088], the EC50 is reported as 27 nM. COCCN1CCn2c(C)cc3c(-c4ccc(F)cc4)c([C@H](OC(C)(C)C)C(=O)O)c(C)c1c32 [Compound I-089] gave an EC50 of 18 nM. Cc1c([C@H](OC(C)(C)C)C(=O)O)c(-c2ccc(F)cc2)c2cc(C)n3c2c1N(C)[C@H](C)C3 [Compound I-092] gave an EC50 of 7.6 nM. Work on Cc1c([C@H](OC(C)(C)C)C(=O)O)c(-c2ccc(F)cc2)c2cc(C)n3c2c1N(C)[C@@H](C)C3 [Compound I-093] yielded an EC50 of 16 nM. Cc1c([C@H](OC(C)(C)C)C(=O)O)c(-c2ccc(Cl)cc2)c2cc(Cl)n3c2c1N(S(C)(=O)=O)CC3 [Compound I-094] was tested, and the EC50 was 12 nM. In the case of Cc1c([C@H](OC(C)(C)C)C(=O)O)c(-c2ccc(Cl)cc2)c2cc(C)n3c2c1N(S(C)(=O)=O)[C@@H](CF)C3 [Compound I-095], the EC50 is reported as 14 nM. Compound Cc1c([C@H](OC(C)(C)C)C(=O)O)c(-c2ccc(F)cc2)c2cc(C)n3c2c1N(S(C)(=O)=O)CC3 [Compound I-096] has an EC50 of 19 nM. Compound [2H]C1([2H])N(C(=O)OC)c2c(C)c([C@H](OC(C)(C)C)C(=O)O)c(-c3ccc(Cl)cc3)c3cc(C)n(c23)C1([2H])[2H] [Compound I-097] has an EC50 of 9.7 nM. Compound [2H]C([2H])([2H])N1c2c(C)c([C@H](OC(C)(C)C)C(=O)O)c(-c3ccc(Cl)cc3)c3cc(C)n(c23)C([2H])([2H])C1([2H])[2H] [Compound I-103] has an EC50 of 3.4 nM. [2H]C([2H])([2H])N1CCn2c(C)cc3c(-c4ccc(Cl)cc4)c([C@H](OC(C)(C)C)C(=O)O)c(C)c1c32 [Compound I-104] showed an EC50 of 4.1 nM. For [2H]C1([2H])N(C)c2c(C)c([C@H](OC(C)(C)C)C(=O)O)c(-c3ccc(F)cc3)c3cc(C)n(c23)C1([2H])[2H] [Compound I-105], the EC50 was 11 nM. In the case of [2H]C([2H])([2H])N1c2c(C)c([C@H](OC(C)(C)C)C(=O)O)c(-c3ccc(F)cc3)c3cc(C)n(c23)C([2H])([2H])C1([2H])[2H] [Compound I-106], the EC50 is reported as 11 nM. Cc1c([C@H](OC(C)(C)C)C(=O)O)c(-c2ccc(Cl)cc2)c2cc(C)n3c2c1N(Cc1ccccc1)CC3 [Compound I-107] showed an EC50 of 25 nM. COCC[C@@H]1Cn2c(C)cc3c(-c4ccc(Cl)cc4)c([C@H](OC(C)(C)C)C(=O)O)c(C)c(c32)N1S(C)(=O)=O [Compound I-108] gave an EC50 of 19 nM. Work on COCC[C@H]1Cn2c(C)cc3c(-c4ccc(Cl)cc4)c([C@H](OC(C)(C)C)C(=O)O)c(C)c(c32)N1C [Compound I-109] yielded an EC50 of 15 nM. COC(=O)N1c2c(C)c([C@H](OC(C)(C)C)C(=O)O)c(-c3ccc(Cl)cc3)c3cc(C)n(c23)C[C@H]1C [Compound I-111] was tested, and the EC50 was 4.2 nM. With Cc1c([C@H](OC(C)(C)C)C(=O)O)c(-c2ccc(Cl)cc2)c2cc(C)n3c2c1N(CCN(C)C)[C@@H](C)C3 [Compound I-113] the EC50 was 22 nM. With Cc1c([C@H](OC(C)(C)C)C(=O)O)c(-c2ccc(F)cc2)c2cc(Cl)n3c2c1N(C)CC3 [Compound I-114] the EC50 was 18 nM. [2H]C1([2H])N(C)c2c(C)c([C@H](OC(C)(C)C)C(=O)O)c(-c3ccc(Cl)cc3)c3cc(Cl)n(c23)C1([2H])[2H] [Compound I-115] gave an EC50 of 11 nM. For Cc1c([C@H](OC(C)(C)C)C(=O)O)c(-c2ccc(Cl)cc2)c2cc(C)n3c2c1N(Cc1ncccn1)CC3 [Compound I-116], the EC50 was 6.7 nM. Cc1c([C@H](OC(C)(C)C)C(=O)O)c(-c2ccc(Cl)cc2)c2cc(C)n3c2c1N(Cc1ccccn1)CC3 [Compound I-117] showed an EC50 of 8.6 nM. For [2H]C([2H])([2H])N1CCn2c(C)cc3c(-c4ccc(F)cc4)c([C@H](OC(C)(C)C)C(=O)O)c(C)c1c32 [Compound I-118], the EC50 was 10 nM. In the case of Cc1c([C@H](OC(C)(C)C)C(=O)O)c(-c2ccc(F)cc2)c2cc(C)n3c2c1N(c1ncccn1)CC3 [Compound I-123], the EC50 is reported as 14 nM. Cc1c([C@H](OC(C)(C)C)C(=O)O)c(-c2ccc(Cl)cc2)c2cc(C)n3c2c1N(c1ccccn1)CC3 [Compound I-125] gave an EC50 of 8.2 nM. Cc1c([C@H](OC(C)(C)C)C(=O)O)c(-c2ccc(Cl)cc2)c2cc(C)n3c2c1N(C)CC3(C)C [Compound I-127] showed an EC50 of 16 nM. For Cc1c([C@H](OC(C)(C)C)C(=O)O)c(-c2ccc(Cl)cc2)c2cc(C)n3c2c1N1C(=O)OCC[C@H]1C3 [Compound I-129], the EC50 was 89 nM. In the case of Cc1ccc(-c2c([C@H](OC(C)(C)C)C(=O)O)c(C)c3c4c2cc(C)n4CCN3CCN2CCOCC2)cc1 [Compound I-131], the EC50 is reported as 15 nM. COC(=O)N1CCn2c(C)cc3c(-c4ccc(F)cc4)c([C@H](OC(C)(C)C)C(=O)O)c(C)c1c32 [Compound I-132] showed an EC50 of 28 nM. In the case of Cc1c([C@H](OC(C)(C)C)C(=O)O)c(-c2ccc(Cl)cc2)c2cc(C)n3c2c1N(Cc1ccncc1)CC3 [Compound I-135], the EC50 is reported as 8.2 nM. Cc1c([C@H](OC(C)(C)C)C(=O)O)c(-c2ccc(Cl)cc2)c2cc(C)n3c2c1N(Cc1cccnc1)CC3 [Compound I-136] showed an EC50 of 8.4 nM. With Cc1c([C@H](OC(C)(C)C)C(=O)O)c(-c2ccc(Cl)cc2)c2cc(C)n3c2c1N(S(=O)(=O)c1cccnc1)CC3 [Compound I-139] the EC50 was 6.8 nM. Compound CC(=O)N(C)CCN1CCn2c(C)cc3c(-c4ccc(C)cc4)c([C@H](OC(C)(C)C)C(=O)O)c(C)c1c32 [Compound I-141] has an EC50 of 41 nM. Cc1c([C@H](OC(C)(C)C)C(=O)O)c(-c2ccc(Cl)cc2)c2cc(C)n3c2c1N1C(=O)OC[C@@H]1C3 [Compound I-146] showed an EC50 of 16 nM. Cc1csc(N2CCn3c(C)cc4c(-c5ccc(Cl)cc5)c([C@H](OC(C)(C)C)C(=O)O)c(C)c2c43)n1 [Compound I-147] showed an EC50 of 16 nM. In the case of Cc1ccc(-c2c([C@H](OC(C)(C)C)C(=O)O)c(C)c3c4c2cc(C)n4C[C@@H](C)N3CCN(C)C)cc1 [Compound I-148], the EC50 is reported as 22 nM. Compound Cc1c([C@H](OC(C)(C)C)C(=O)O)c(-c2ccc(Cl)cc2)c2cc(C)n3c2c1N(C1CCOCC1)CC3 [Compound I-149] has an EC50 of 15 nM. Work on Cc1coc(N2CCn3c(C)cc4c(-c5ccc(Cl)cc5)c([C@H](OC(C)(C)C)C(=O)O)c(C)c2c43)n1 [Compound I-150] yielded an EC50 of 15 nM.

Same assay, conditions: read-out: EC50 against T125A mutant virus; T125A mutant virus (HIV-1 NL-432 IN gene), MT-4 cells, MTT
In the case of Cc1c([C@H](OC(C)(C)C)C(=O)O)c(-c2ccc(Cl)cc2)c2cc(C)n3c2c1N(C)CC3C (stereo partly drawn) [Compound I-090], the EC50 is reported as 39 nM. For Cc1c([C@H](OC(C)(C)C)C(=O)O)c(-c2ccc(Cl)cc2)c2cc(C)n3c2c1N(C)CC3C (stereo partly drawn) [Compound I-091], the EC50 was 2 nM. COC(=O)N1CC(C)n2c(C)cc3c(-c4ccc(Cl)cc4)c([C@H](OC(C)(C)C)C(=O)O)c(C)c1c32 (stereo partly drawn) [Compound I-119] showed an EC50 of 2.8 nM. Compound COC(=O)N1CC(C)n2c(C)cc3c(-c4ccc(Cl)cc4)c([C@H](OC(C)(C)C)C(=O)O)c(C)c1c32 (stereo partly drawn) [Compound I-120] has an EC50 of 52 nM. Compound Cc1c([C@H](OC(C)(C)C)C(=O)O)c(-c2ccc(F)cc2)c2cc(C)n3c2c1N(C)CC3C (stereo partly drawn) [Compound I-133] has an EC50 of 96 nM. In the case of Cc1c([C@H](OC(C)(C)C)C(=O)O)c(-c2ccc(F)cc2)c2cc(C)n3c2c1N(C)CC3C (stereo partly drawn) [Compound I-134], the EC50 is reported as 8.4 nM. Cc1c([C@H](OC(C)(C)C)C(=O)O)c(-c2ccc(Cl)cc2)c2cc(C)n3c2c1N(C)C1COCC13 (stereo partly drawn) [Compound I-137] showed an EC50 of 86 nM.
